# Starred links: 1 amine or outer side, 2 acyl side, 3 side chain; linkers in the order of their positions; H or OH if unused. Non-standard residues stand in square brackets, D forms with d. Residues, ends and D or L forms follow the SMILES beside them. X1 = O=C([C@H](O[*:1])C1CCCCC1)[*:2]; X2 = O=C([C@H](O[*:1])c1ccccc1)[*:2]; X3 = O=C([C@H](O[*:1])C1CCCC1)[*:2]; X4 = O=C([C@@H](O[*:1])C1CC1)[*:2]; NMeF = CN[C@@H](Cc1ccccc1)C(=O)O; NMeT = CN[C@H](C(=O)O)[C@@H](C)O; aIle = CC[C@@H](C)[C@H](N)C(=O)O; NMeV = CN[C@H](C(=O)O)C(C)C; dHiv = CC(C)[C@@H](O)C(=O)O; Pip = O=C(O)[C@@H]1CCCCN1; Aze = O=C(O)[C@@H]1CCN1
# Assays:
# [1] = system: Candida albicans, Candida tropicalis, Candida stellatoidea, Candida parapsilosis, Candida krusei; assay: In vitro anti-fungal microtiter minimum inhibitory concentration (MIC) test, geometric mean over Candida strains; format: cell-based
# Description: The geometric mean is taken from the following strains
# Candida stellatoidea C184
# The minimum inhibitory concentrations (GMMICs-R(μg/ml) for Ca (SDB) Ca (EMEM) (Derm) and (Asp) for the compounds of formula I of the invention are as shown in Table 2 above.
# The minimum inhibitory concentrations were determined in accordance with the procedure set forth just below.
# In vitro anti-fungal activity was determined in microtiter minimum inhibitory concentration (MIC) tests using Yeast Nitrogen Broth (YNB without amino acids, Difco., Detroit, Mich.) at pH 5.4. Yeasts were grown overnight in Sabouraud Dextrose Broth at 28° C. with shaking, and concentrations adjusted in sterile saline using a spectrophoptometer at 540 mμ. Compounds were dissolved in various vehicles and diluted in media to twice the final concentrations. The Cetus Pro/Pette system was used to serially dilute 50 μl in round bottom 96 well plates (Falcon, Lincoln Park, N.J.). The turbidometrically adjusted yeast suspensions were diluted 1:3,000 in YNB. These dilutions when added to the wells, produced a final inoculum of 3×10^3 /ml. Plates were incubated at 37° C. for 48 hours. MICs were defined as the lowest concentrations of compound that prevented visible growth. MICs were taken against the following organisms and expressed in the table above as the geometric mean.
# [2] = system: C. Albicans, C-43; assay: In vivo anti-fungal activity, C. albicans infection study in mice; conditions: once a day for 4 days starting 4 hours post infection
# Description: In vivo anti-fungal activity for compounds of formula I of the invention was determined by using the test protocol set forth in Cacciapuoti et al, ANTIMICROBIAL AGENTS AND CHEMOTHERAPY, Vol.36, No. 1, January 1992, p. 64-67, which is hereby incorporated by reference. The specific test protocol used to obtain the data given below, appears in the just above mentioned article at pages 64 and 65 under the heading "C. albicans infection studies". Data obtained from this test protocol are as follows:
# The numbering for the compounds tested is the same as the numbering used for the compounds in the rest of the application. The mice used in the above experiment were Charles River, white, male, mice weighing between 18 and 20 grams. The organism used to infect the mice was C. Albicans, C-43, 1XE6 CFU/mice, 0.1 M1 IV. The treatment was once a day for 4 days starting 4 hours post infection for those compounds which have a * next to them. For those compounds which have no * next to them, the treatment was once a day for 4 days starting 24 hours post infection. The dose was 0.1 ml/mouse in either case. The vehicle used with the compounds was Tween 80:Ethanol:PBS (1:9:40 or 2%:18%:80%)
# [3] = EMEM, geometric mean over 14 Candida strains, 37° C., 48 hours
# [4] = SDB, geometric mean over 14 Candida strains, 37° C., 48 hours
smiles,measurement,setting,value
CC[C@@H](C)[C@@H]1NC(=O)[C@@H]2CCCCN2C(=O)[C@H](Cc2ccccc2)N(C)C(=O)[C@H](Cc2ccccc2)NC(=O)[C@H](C(C)C)N(C)C(=O)[C@@H](C2CCCCC2)OC(=O)[C@H]([C@@H](C)O)N(C)C(=O)[C@H](CC(C)C)NC(=O)[C@H](C(C)C)N(C)C1=O [Compound 9] (cyclo(F[NMeF][Pip][aIle][NMeV]L[NMeT][X1][NMeV])),Geo. Mean MICs (μg/ml) Ca. (EMEM),[1]; 48 h,0.475 µg/mL
same,Geo. Mean MICs (μg/ml) Ca. (SDB),[1]; 48 h,0.290 µg/mL
CC[C@@H](C)[C@@H]1NC(=O)[C@@H]2CCCN2C(=O)[C@H](Cc2ccccc2)N(C)C(=O)[C@H](Cc2ccccc2)NC(=O)[C@H](C(C)C)N(C)C(=O)[C@H](C2CC2)OC(=O)[C@H]([C@@H](C)O)N(C)C(=O)[C@H](CC(C)C)NC(=O)[C@H](C(C)C)N(C)C1=O [Compound 8] (cyclo([X4][NMeV]F[NMeF]P[aIle][NMeV]L[NMeT])),Geo. Mean MICs (μg/ml) Ca. (EMEM),[1]; 48 h,0.780 µg/mL
same,Geo. Mean MICs (μg/ml) Ca. (SDB),[1]; 48 h,0.133 µg/mL
"CC[C@@H](C)[C@@H]1NC(=O)[C@@H]2CCCN2C(=O)[C@H](Cc2ccccc2)N(C)C(=O)[C@H](Cc2ccccc2)NC(=O)[C@H](C(C)C)N(C)C(=O)[C@@H](C2CCCCC2)OC(=O)[C@H]([C@@H](C)O)N(C)C(=O)[C@H](CC(C)C)NC(=O)[C@H](C(C)C)N(C)C1=O [Compound 1, Cyclo-depsi-N-methyl-threonyl-(2-hydroxyl-2-cyclohexylacetyl)-N-methylvalyl-phenylanalyl-N-methylphenylanalyl-prolyl-allo-isoleucyl-N-methylvalyl-leucine] (cyclo(F[NMeF]P[aIle][NMeV]L[NMeT][X1][NMeV]))",Geo. Mean MICs (μg/ml) Ca. (EMEM),[1]; [3],0.288 µg/mL
same,Geo. Mean MICs (μg/ml) Ca. (SDB),[1]; [4],0.018 µg/mL
same,% Survival,[2]; 5 MPK IV,60%
same,CFUs (GM),[2]; 5 MPK IV,6.90
same,% Survival,[2]; 5 MPK PO,70%
same,CFUs (GM),[2]; 5 MPK PO,6.68
same,% Survival,[2]; 10 MPK IV,70%
same,CFUs (GM),[2]; 10 MPK IV,7.11
same,% Survival,[2]; 10 MPK PO,100%
same,CFUs (GM),[2]; 10 MPK PO,6.01
same,% Survival,[2]; 20 MPK PO,100%
same,CFUs (GM),[2]; 20 MPK PO,6.38
same,% Survival,[2]; 40 MPK PO,100%
same,CFUs (GM),[2]; 40 MPK PO,6.52
CC[C@@H](C)[C@@H]1NC(=O)[C@@H]2CCCN2C(=O)[C@H](Cc2ccccc2)N(C)C(=O)[C@H](Cc2ccccc2)NC(=O)[C@H](C(C)C)N(C)C(=O)[C@@H](C2CCCC2)OC(=O)[C@H]([C@@H](C)O)N(C)C(=O)[C@H](CC(C)C)NC(=O)[C@H](C(C)C)N(C)C1=O [Compound 6] (cyclo(F[NMeF]P[aIle][NMeV]L[NMeT][X3][NMeV])),Geo. Mean MICs (μg/ml) Ca. (EMEM),[1]; 48 h,0.500 µg/mL
same,Geo. Mean MICs (μg/ml) Ca. (SDB),[1]; 48 h,0.090 µg/mL
CC[C@@H](C)[C@@H]1NC(=O)[C@@H]2CCCN2C(=O)[C@H](Cc2ccccc2)N(C)C(=O)[C@H](Cc2ccccc2)NC(=O)[C@H](C(C)C)N(C)C(=O)[C@@H](C(C)C)OC(=O)[C@H]([C@@H](C)O)N(C)C(=O)[C@H](CC(C)C)NC(=O)[C@H](C(C)C)N(C)C1=O [Compound 4] (cyclo(F[NMeF]P[aIle][NMeV]L[NMeT][dHiv][NMeV])),Geo. Mean MICs (μg/ml) Ca. (EMEM),[1]; 48 h,0.500 µg/mL
same,Geo. Mean MICs (μg/ml) Ca. (SDB),[1]; 48 h,0.032 µg/mL
"CC[C@@H](C)[C@@H]1NC(=O)[C@@H]2CCN2C(=O)[C@H](Cc2ccccc2)N(C)C(=O)[C@H](Cc2ccccc2)NC(=O)[C@H](C(C)C)N(C)C(=O)[C@@H](C2CCCCC2)OC(=O)[C@H]([C@@H](C)O)N(C)C(=O)[C@H](CC(C)C)NC(=O)[C@H](C(C)C)N(C)C1=O [Compound 2, Cyclo-depsi-N-methyl-threonyl-(2-hydroxy-2-cyclohexylacetyl)-N-methylvalyl-phenylalanyl-N-methylphenylalanyl-azetidinyl-allo-isoleucyl-N-methylvalyl-leucine] (cyclo([Aze][aIle][NMeV]L[NMeT][X1][NMeV]F[NMeF]))",Geo. Mean MICs (μg/ml) Ca. (EMEM),[1]; [3],0.353 µg/mL
same,Geo. Mean MICs (μg/ml) Ca. (SDB),[1]; [4],0.062 µg/mL
CC[C@@H](C)[C@@H]1NC(=O)[C@@H]2CCN2C(=O)[C@H](Cc2ccccc2)N(C)C(=O)[C@H](Cc2ccccc2)NC(=O)[C@H](C(C)C)N(C)C(=O)[C@@H](C2CCCC2)OC(=O)[C@H]([C@@H](C)O)N(C)C(=O)[C@H](CC(C)C)NC(=O)[C@H](C(C)C)N(C)C1=O [Compound 5] (cyclo([Aze][aIle][NMeV]L[NMeT][X3][NMeV]F[NMeF])),Geo. Mean MICs (μg/ml) Ca. (EMEM),[1]; 48 h,0.195 µg/mL
same,Geo. Mean MICs (μg/ml) Ca. (SDB),[1]; 48 h,0.015 µg/mL
CC[C@@H](C)[C@@H]1NC(=O)[C@@H]2CCCN2C(=O)[C@H](Cc2ccccc2)N(C)C(=O)[C@H](Cc2ccccc2)NC(=O)[C@H](C(C)C)N(C)C(=O)[C@@H](c2ccccc2)OC(=O)[C@H]([C@@H](C)O)N(C)C(=O)[C@H](CC(C)C)NC(=O)[C@H](C(C)C)N(C)C1=O [Compound 7] (cyclo(F[NMeF]P[aIle][NMeV]L[NMeT][X2][NMeV])),Geo. Mean MICs (μg/ml) Ca. (EMEM),[1]; 48 h,0.710 µg/mL
same,Geo. Mean MICs (μg/ml) Ca. (SDB),[1]; 48 h,0.170 µg/mL

# Reference: patent publication US5739104A, “Anti-fungal agents” (Schering Corporation, priority 1995, dated 1998)
